According to paper PMC10120551, “Novel Glu-based pyrazolo[3,4-d]pyrimidine analogues: design, synthesis and biological evaluation as DHFR and TS dual inhibitors” (Journal of Enzyme Inhibition and Medicinal Chemistry, 2023):

Legend:
A549/ATCC = assay: NCI one-dose screen (SRB); type: cell-based, human; conditions: NSCLC, 10 µM single dose
Experimental: (§1) The growth percentage (G%) and cell viability of the herein target compounds 6a–l, 7a,b, and 9a–c have been screened towards a full panel of 59 cancer cells at NCI’s Developmental Therapeutics Program (NCI-DTP, MD, USA)[21]. The submitted analogues were initially examined for preliminary in vitro anticancer activity using sulforhodamine B (SRB) assay at 10 µM as a single dose to evaluate cell growth and viability according to the procedure of Drug Evaluation Branch[22]^,[23].
(§2) Different types of tumours – colon, NSCLC, leukaemia, CNS, renal, breast, ovarian, melanoma, and prostate cancers – were investigated as a full panel of 59 cell lines, and the attained results are cited in Figures S1–S17 (see Supplementary Material) where the value recorded is the growth relative to that of both the negative control and zero-time number of cells in which both growth inhibition (GI%; 0–100%) and lethality (L%; 0–100%) percentages can be identified. The growth inhibition means percentages (MGI%) for the examined target analogues towards the different treated 59 cancer cells were presented in Figure 2.
(§3) The designed analogues were submitted to NCI-Chemotherapeutic Agents Repository (MD, USA) for screening on a panel of 59 cancer cell lines. All compounds were initially examined at 10 µM concentration (Single-Dose Screen), and then the most efficient analogue 6i was screened further at 0.01–100 µM (Five-Dose Screen). The screening procedures were performed according to NCI-Drug Evaluation Branch protocol using SRB protein assay, as described previously[21]^,[66]. The experimental procedures were detailed in the Supporting Information.

BT-549 = assay: NCI one-dose screen (SRB); type: cell-based, human; conditions: BT-549, Breast cancer; 10 µM single dose
Experimental: as §1, §2, §3

COLO 205 = assay: NCI one-dose screen (SRB); type: cell-based, human; conditions: COLO 205, Colon cancer; 10 µM single dose
Experimental: as §1, §2, §3

EKVX = assay: NCI one-dose screen (SRB); type: cell-based, human; conditions: NSCLC, 10 µM single dose
Experimental: as §1, §2, §3

HOP-62 = assay: NCI one-dose screen (SRB); type: cell-based, human; conditions: HOP-62, NSCLC; 10 µM single dose
Experimental: as §1, §2, §3

HT29 = assay: NCI one-dose screen (SRB); type: cell-based, human; conditions: HT29, Colon cancer; 10 µM single dose
Experimental: as §1, §2, §3

LOX IMVI = assay: NCI one-dose screen (SRB); type: cell-based, human; conditions: Melanoma, 10 µM single dose
Experimental: as §1, §2, §3

M14 = assay: NCI one-dose screen (SRB); type: cell-based, human; conditions: M14, Melanoma; 10 µM single dose
Experimental: as §1, §2, §3

MCF7 = assay: NCI one-dose screen (SRB); type: cell-based, human; conditions: MCF7, Breast; 10 µM single dose
Experimental: as §1, §2, §3

MDA-MB-435 = assay: NCI one-dose screen (SRB); type: cell-based, human; conditions: MDA-MB-435, Melanoma; 10 µM single dose
Experimental: as §1, §2, §3

MDA-MB-468 = assay: NCI one-dose screen (SRB); type: cell-based, human; conditions: MDA-MB-468, Breast; 10 µM single dose
Experimental: as §1, §2, §3

MOLT-4 = assay: NCI one-dose screen (SRB); type: cell-based, human; conditions: MOLT-4, Leukaemia; 10 µM single dose
Experimental: as §1, §2, §3

NCI-H226 = assay: NCI one-dose screen (SRB); type: cell-based, human; conditions: NCI-H226, NSCLC; 10 µM single dose
Experimental: as §1, §2, §3

NCI-H23 = assay: NCI one-dose screen (SRB); type: cell-based, human; conditions: NCI-H23, NSCLC; 10 µM single dose
Experimental: as §1, §2, §3

NCI-H522 = assay: NCI one-dose screen (SRB); type: cell-based, human; conditions: NCI-H522, NSCLC; 10 µM single dose
Experimental: as §1, §2, §3

NCI/ADR-RES = assay: NCI one-dose screen (SRB); type: cell-based, human; conditions: Ovarian cancer, 10 µM single dose
Experimental: as §1, §2, §3

OVCAR-3 [1] = assay: NCI one-dose screen (SRB); type: cell-based, human; conditions: OVCAR-3, Ovarian; 10 µM single dose
Experimental: as §1, §2, §3

OVCAR-4 = assay: NCI one-dose screen (SRB); type: cell-based, human; conditions: OVCAR-4, Ovarian cancer; 10 µM single dose
Experimental: as §1, §2, §3

OVCAR-8 [2] = assay: NCI one-dose screen (SRB); type: cell-based, human; conditions: OVCAR-8, Ovarian; 10 µM single dose
Experimental: as §1, §2, §3

RXF 393 = assay: NCI one-dose screen (SRB); type: cell-based, human; conditions: RXF 393, Renal; 10 µM single dose
Experimental: as §1, §2, §3

SF-268 = assay: NCI one-dose screen (SRB); type: cell-based, human; conditions: SF-268, CNS; 10 µM single dose
Experimental: as §1, §2, §3

SF-295 [3] = assay: NCI one-dose screen (SRB); type: cell-based, human; conditions: SF-295, CNS; 10 µM single dose
Experimental: as §1, §2, §3

SF-539 = assay: NCI one-dose screen (SRB); type: cell-based, human; conditions: SF-539, CNS cancer; 10 µM single dose
Experimental: as §1, §2, §3

SK-MEL-28 = assay: NCI one-dose screen (SRB); type: cell-based, human; conditions: SK-MEL-28, Melanoma; 10 µM single dose
Experimental: as §1, §2, §3

SK-MEL-5 = assay: NCI one-dose screen (SRB); type: cell-based, human; conditions: SK-MEL-5, Melanoma; 10 µM single dose
Experimental: as §1, §2, §3

SN12C = assay: NCI one-dose screen (SRB); type: cell-based, human; conditions: Renal cancer, 10 µM single dose
Experimental: as §1, §2, §3

SW-620 = assay: NCI one-dose screen (SRB); type: cell-based, human; conditions: SW-620, Colon cancer; 10 µM single dose
Experimental: as §1, §2, §3

U251 = assay: NCI one-dose screen (SRB); type: cell-based, human; conditions: U251, CNS cancer; 10 µM single dose
Experimental: as §1, §2, §3

UACC-62 = assay: NCI one-dose screen (SRB); type: cell-based, human; conditions: UACC-62, Melanoma; 10 µM single dose
Experimental: as §1, §2, §3

OVCAR-3 [4] = conditions: OVCAR-3, Ovarian cancer; five-dose 0.01–100 µM
OVCAR-8 [5] = conditions: OVCAR-8, Ovarian cancer; five-dose 0.01–100 µM
SF-295 [6] = assay: cells; conditions: Homo sapiens
786-0 = assay: cells; conditions: Homo sapiens

## CCOC(=O)CC[C@H](NC(=O)c1ccc(NC(=O)Cn2cnc3c(c(C)nn3-c3ccc(Br)cc3)c2=O)cc1)C(=O)OCC [Compound 6i]
A549/ATCC
  GI%: 71.36%
BT-549
  GI%: 66.64%
COLO 205
  GI%: 71.69%
EKVX
  GI%: 78.12%
HOP-62
  L% (lethality): 8.41%
HT29
  GI%: 59.90%
LOX IMVI
  GI%: 78.49%
M14
  GI%: 74.15%
MCF7
  GI%: 97.72%
MDA-MB-435
  GI%: 57.10%
MDA-MB-468
  GI%: 92.44%
MOLT-4
  GI%: 52.51%
NCI-H226
  L% (lethality): 37.32%
NCI-H23
  GI%: 87.19%
NCI-H522
  GI%: 52.34%
NCI/ADR-RES
  GI%: 51.78%
OVCAR-3 [1]
  GI%: 96.83%
OVCAR-4
  GI%: 66.09%
OVCAR-8 [2]
  GI%: 87.86%
RXF 393
  L% (lethality): 22.73%
SF-268
  GI%: 85.11%
SF-295 [3]
  GI%: 89.78%
SF-539
  GI%: 54.23%
SK-MEL-28
  GI%: 75.54%
SK-MEL-5
  L% (lethality): 1.38%
SN12C
  GI%: 57.69%
SW-620
  GI%: 62.17%
U251
  GI%: 53.30%
UACC-62
  GI%: 63.82%
OVCAR-3 [4]
  TGI: 61.3 µM
OVCAR-8 [5]
  TGI: >100 µM
SF-295 [6]; SF-295
  GI50: 14.2 µM
SF-295 [6]; SF-295, read-out: LC50
  CC50: 71.6 µM
786-0; 786-0
  GI50: 8.66 µM
786-0; 786-0, read-out: LC50
  CC50: > 100 µM
